This passage reports IC50 results from patent US20210395239A1 (Hoffmann-La Roche Inc., priority 2018, published 2021).

For the assay, the target named is T1, human TLR7 (Homo sapiens, UniProt Q9NYK1).
T1 construct: host or cells: HEK293 (HEK-Blue hTLR7)
T1 sequence (Q9NYK1 27-1049): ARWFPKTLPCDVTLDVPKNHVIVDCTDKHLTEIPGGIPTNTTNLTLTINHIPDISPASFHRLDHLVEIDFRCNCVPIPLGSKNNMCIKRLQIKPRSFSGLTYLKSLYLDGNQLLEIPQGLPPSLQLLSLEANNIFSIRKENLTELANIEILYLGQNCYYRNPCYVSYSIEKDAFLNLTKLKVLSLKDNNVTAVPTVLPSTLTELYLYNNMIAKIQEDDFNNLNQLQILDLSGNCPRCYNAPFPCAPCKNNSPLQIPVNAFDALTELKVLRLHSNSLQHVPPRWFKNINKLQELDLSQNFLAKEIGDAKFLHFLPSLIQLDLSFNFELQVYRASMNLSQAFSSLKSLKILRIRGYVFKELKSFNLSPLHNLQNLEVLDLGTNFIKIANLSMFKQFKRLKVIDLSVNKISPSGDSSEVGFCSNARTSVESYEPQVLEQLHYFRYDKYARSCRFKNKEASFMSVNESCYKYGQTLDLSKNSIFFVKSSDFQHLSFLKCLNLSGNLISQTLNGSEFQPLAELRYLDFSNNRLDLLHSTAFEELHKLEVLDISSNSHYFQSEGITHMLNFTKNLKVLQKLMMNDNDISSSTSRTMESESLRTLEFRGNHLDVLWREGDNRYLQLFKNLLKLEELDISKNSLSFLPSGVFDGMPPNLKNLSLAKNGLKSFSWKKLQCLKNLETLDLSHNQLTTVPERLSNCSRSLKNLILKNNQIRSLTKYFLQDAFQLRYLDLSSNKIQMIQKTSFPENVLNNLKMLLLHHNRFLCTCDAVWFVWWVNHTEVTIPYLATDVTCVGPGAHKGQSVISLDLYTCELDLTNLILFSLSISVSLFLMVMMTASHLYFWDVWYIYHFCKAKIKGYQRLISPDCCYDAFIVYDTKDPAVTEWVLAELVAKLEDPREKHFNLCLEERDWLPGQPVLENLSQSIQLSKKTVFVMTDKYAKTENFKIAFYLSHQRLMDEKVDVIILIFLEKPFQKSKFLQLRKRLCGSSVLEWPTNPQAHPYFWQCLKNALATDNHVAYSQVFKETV
As to the kind of experiment: HEK293-Blue-hTLR-7 cells assay (SEAP reporter, R848 stimulation). To be noted: HEK293-Blue-hTLR7 cells, R848, 20 hrs; read-out: HEK/hTLR7 IC50. The format is cell-based. The text has this: HEK293-Blue-hTLR-7 Cells Assay:
A stable HEK293-Blue-hTLR-7 cell line was purchased from InvivoGen (Cat. #: hkb-ht1r7, San Diego, Calif., USA). These cells were originally designed for studying the stimulation of human TLR7 by monitoring the activation of NF-κB. A SEAP (secreted embryonic alkaline phosphatase) reporter gene was placed under the control of the IFN-β minimal promoter fused to five NF-κB and AP-1-binding sites. The SEAP was induced by activating NF-κB and AP-1 via stimulating HEK-Blue hTLR7 cells with TLR7 ligands. Therefore the reporter expression was declined by TLR7 antagonist under the stimulation of a ligand, such as R848 (Resiquimod), for incubation of 20 hrs. The cell culture supernatant SEAP reporter activity was determined using QUANTI-Blue™ kit (Cat. #: rep-qb1, Invivogen, San Diego, Ca, USA) at a wavelength of 640 nm, a detection medium that turns purple or blue in the presence of alkaline phosphatase.
HEK293-Blue-hTLR7 cells were incubated at a density of […] cells/mL in a volume of 170 μL in a 96-well plate in Dulbecco's Modified Eagle's medium (DMEM) containing 4.5 g/L glucose, 50 U/mL penicillin, […], […], 2 mM L-glutamine, 10% (v/v) heat-inactivated fetal bovine serum with addition of 20 μL test compound in a serial dilution in the presence of final DMSO at 1% and 10 μL of 20 uM R848 in above DMEM, perform incubation under 37° C. in a CO2 incubator for 20 hrs. Then 20 μL of the supernatant from each well was incubated with 180 μL Quanti-blue substrate solution at 37° C. for 2 hrs and the absorbance was read at 620˜655 nm using a spectrophotometer. The signaling pathway that TLR7 activation leads to downstream NF-κB activation has been widely accepted, and therefore similar reporter assay was modified for evaluating TLR7 antagonist.
Regarding `CO[C@@H]1CN(c2cc(C)nc(N3CCN(C[C@H]4CN(c5ccc(C#N)c6nccnc56)C[C@@H](C)O4)CC3)n2)C[C@@H]1N` [Example 120, 8-[(2S,6R)-2-[[4-[4-[(3S,4R)-3-amino-4-methoxy-pyrrolidin-1-yl]-6-methyl-pyrimidin-2-yl]piperazin-1-yl]methyl]-6-methyl-morpholin-4-yl]quinoxaline-5-carbonitrile], the IC50 is 0.005 µM.

Turning to `[2H]c1ccc2c(N3C[C@H](CN4CCN(c5nc(C)cc(N6C[C@H](OC)[C@@H](N)C6)n5)CC4)O[C@H](C)C3)ccc(C#N)c2n1` [Example 134, 5-[(2S,6R)-2-[[4-[4-[(3S,4S)-3-amino-4-methoxy-pyrrolidin-1-yl]-6-methyl-pyrimidin-2-yl]piperazin-1-yl]methyl]-6-methyl-morpholin-4-yl]-2-deuterio-quinoline-8-carbonitrile], the IC50 turned out to be 0.025 µM.

Take `Cc1cnc(N2CCN(C[C@H]3CN(c4ccc(C#N)c5ncccc45)C[C@@H](C)O3)CC2)nc1N1CCNCC1` [Example 102, 5-[(2R,6S)-2-methyl-6-[[4-(5-methyl-4-piperazin-1-yl-pyrimidin-2-yl)piperazin-1-yl]methyl]morpholin-4-yl]quinoline-8-carbonitrile]: the IC50 amounted to 0.018 µM.

Consider `COc1cc(N2CCN(C[C@H]3CN(c4ccc(C#N)c5ncccc45)C[C@@H](C)O3)CC2)nc(N2CCNCC2)n1` [Example 91, 5-[(2S,6R)-2-[[4-(6-methoxy-2-piperazin-1-yl-pyrimidin-4-yl)piperazin-1-yl]methyl]-6-methyl-morpholin-4-yl]quinoline-8-carbonitrile], for which the IC50 was 0.013 µM.

As to `Cc1ccc(N2C[C@H](CN3CCN(c4ccnc(N5CCN[C@H](C)C5)n4)CC3)O[C@H](C)C2)c2nccnc12` [Example 128, (2R,6S)-2-methyl-6-[[4-[2-[(3R)-3-methylpiperazin-1-yl]pyrimidin-4-yl]piperazin-1-yl]methyl]-4-(8-methylquinoxalin-5-yl)morpholine], the IC50 was determined as 0.03 µM.

Turning to `CO[C@H]1CN(c2nccc(N3CCN(C[C@H]4CN(c5ccc(C#N)c6nccnc56)C[C@@H](C)O4)CC3)n2)C[C@@H]1N` [Example 99, 8-[(2S,6R)-2-[[4-[2-[(3S,4S)-3-amino-4-methoxy-pyrrolidin-1-yl]pyrimidin-4-yl]piperazin-1-yl]methyl]-6-methyl-morpholin-4-yl]quinoxaline-5-carbonitrile], the IC50 worked out at 0.011 µM.

For `CO[C@@H]1CN(c2ccc(N3CCN(C[C@H]4CN(c5ccc(C#N)n6ncc(F)c56)C[C@@H](C)O4)CC3)cn2)C[C@H]1N` [Example 166, 4-[(2S,6R)-2-[[4-[6-[(3R,4R)-3-amino-4-methoxy-pyrrolidin-1-yl]-3-pyridyl]piperazin-1-yl]methyl]-6-methyl-morpholin-4-yl]-3-fluoro-pyrazolo[1,5-a]pyridine-7-carbonitrile], the IC50 stood at 0.021 µM.

For the compound `[2H]c1ccc2c(N3C[C@H](CN4CCN(c5nc(C)cc(N6CC(C)(N)C6)n5)CC4)O[C@H](C)C3)ccc(C#N)c2n1` [Example 135, 5-[(2S,6R)-2-[[4-[4-(3-amino-3-methyl-azetidin-1-yl)-6-methyl-pyrimidin-2-yl]piperazin-1-yl]methyl]-6-methyl-morpholin-4-yl]-2-deuterio-quinoline-8-carbonitrile], the IC50 turned out to be 0.016 µM.

As for `C[C@@H]1CN(c2ccc(C#N)c3ncccc23)C[C@H](CN2CCN(c3ccnc(N4C[C@@H](F)[C@@H](N)C4)n3)CC2)O1` [Example 95, 5-[(2S,6R)-2-[[4-[2-[(3S,4R)-3-amino-4-fluoro-pyrrolidin-1-yl]pyrimidin-4-yl]piperazin-1-yl]methyl]-6-methyl-morpholin-4-yl]quinoline-8-carbonitrile], the IC50 was 0.007 µM.

Consider `[2H]c1ccc2c(N3C[C@H](CN4CCN(c5cnc(N6CC(C)(N)C6)cc5C)CC4)O[C@H](C)C3)ccc(C#N)c2n1` [Example 133, 5-[(2S,6R)-2-[[4-[6-(3-amino-3-methyl-azetidin-1-yl)-4-methyl-3-pyridyl]piperazin-1-yl]methyl]-6-methyl-morpholin-4-yl]-2-deuterio-quinoline-8-carbonitrile], for which the IC50 was 0.041 µM.

For `C[C@@H]1CN(c2ccc(C#N)c3ncccc23)C[C@H](CN2CCN(c3ncc(F)c(N4CCNCC4)n3)CC2)O1` [Example 94, 5-[(2S,6R)-2-[[4-(5-fluoro-4-piperazin-1-yl-pyrimidin-2-yl)piperazin-1-yl]methyl]-6-methyl-morpholin-4-yl]quinoline-8-carbonitrile], the IC50 amounted to 0.013 µM.

As to `C[C@@H]1CN(c2ccc(C#N)c3ncccc23)C[C@H](CN2CC(c3cccc(N4CCNCC4)c3)C2)O1` [Example 4, 5-[(2R,6S)-2-methyl-6-[[3-(3-piperazin-1-ylphenyl)azetidin-1-yl]methyl]morpholin-4-yl]quinoline-8-carbonitrile], the IC50 came out at 0.016 µM.

Take `[2H]c1ccc2c(N3C[C@H](CN4CCN(c5ccc(N6C[C@H](N)[C@@H](F)C6)nc5)CC4)O[C@H](C)C3)ccc(C#N)c2n1` [Example 150, 5-[(2S,6R)-2-[[4-[6-[(3S,4S)-3-amino-4-fluoro-pyrrolidin-1-yl]-3-pyridyl]piperazin-1-yl]methyl]-6-methyl-morpholin-4-yl]-2-deuterio-quinoline-8-carbonitrile]: the IC50 came to 0.035 µM.

On to `C[C@@H]1CN(c2ccc(C#N)n3ncc(F)c23)C[C@H](CN2CCN(c3ccc(N4CC(C)(N)C4)nc3)CC2)O1` [Example 154, 4-[(2S,6R)-2-[[4-[6-(3-amino-3-methyl-azetidin-1-yl)-3-pyridyl]piperazin-1-yl]methyl]-6-methyl-morpholin-4-yl]-3-fluoro-pyrazolo[1,5-a]pyridine-7-carbonitrile], for which the IC50 worked out at 0.032 µM.

As to `CO[C@@H]1CN(c2ccc(C3CN(C[C@H]4CN(c5ccc(C#N)n6ncc(F)c56)C[C@@H](C)O4)C3)cn2)C[C@H]1N` [Example 164, 4-[(2S,6R)-2-[[3-[6-[(3R,4R)-3-amino-4-methoxy-pyrrolidin-1-yl]-3-pyridyl]azetidin-1-yl]methyl]-6-methyl-morpholin-4-yl]-3-fluoro-pyrazolo[1,5-a]pyridine-7-carbonitrile], the IC50 is 0.01 µM.

Turning to `CO[C@@H]1CN(c2cc(C)nc(N3CCN(C[C@H]4CN(c5ccc(C#N)c6nccnc56)C[C@@H](C)O4)CC3)n2)C[C@H]1N` [Example 121, 8-[(2S,6R)-2-[[4-[4-[(3R,4R)-3-amino-4-methoxy-pyrrolidin-1-yl]-6-methyl-pyrimidin-2-yl]piperazin-1-yl]methyl]-6-methyl-morpholin-4-yl]quinoxaline-5-carbonitrile], the IC50 came to 0.008 µM.

On to `C[C@@H]1CN(c2ccc(C#N)c3nccnc23)C[C@H](CN2CCN(c3ccnc(N4CC[C@H](N)[C@H](F)C4)n3)CC2)O1` [Example 111, 8-[(2S,6R)-2-[[4-[2-[(3R,4S)-4-amino-3-fluoro-1-piperidyl]pyrimidin-4-yl]piperazin-1-yl]methyl]-6-methyl-morpholin-4-yl]quinoxaline-5-carbonitrile], for which the IC50 was found to be 0.003 µM.
